Results published in patent publication US11873291B2, “Quinoline cGAS antagonist compounds” (ImmuneSensor Therapeutics, Inc., priority 2020, dated 2024).

Each compound was assayed against T1, recombinant human cGAS (aa147-522) (Homo sapiens, UniProt Q8N884) (assay: In vitro inhibition assay of cGAS activity (ATP consumption, KinaseGlo Max)). Conditions: Table 2, read-out: cGAS Inhibition Results IC50.
T1 construct: recombinant human cGAS (aa147-522); His6-SUMO (cleaved yes); made in house; host or cells: E. coli BL21/pLys
T1 sequence (Q8N884 147-522): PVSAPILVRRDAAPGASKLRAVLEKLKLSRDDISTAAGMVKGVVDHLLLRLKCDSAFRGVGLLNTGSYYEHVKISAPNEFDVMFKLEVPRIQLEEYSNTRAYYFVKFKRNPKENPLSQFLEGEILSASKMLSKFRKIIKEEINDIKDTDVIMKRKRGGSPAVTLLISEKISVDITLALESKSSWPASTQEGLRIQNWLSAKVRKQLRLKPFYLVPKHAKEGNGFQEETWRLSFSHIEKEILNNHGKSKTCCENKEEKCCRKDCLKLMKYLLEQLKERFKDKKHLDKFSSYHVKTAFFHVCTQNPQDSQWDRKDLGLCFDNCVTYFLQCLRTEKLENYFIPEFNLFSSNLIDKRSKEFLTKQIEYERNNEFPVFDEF
Assay type: biochemical
Procedure, shortened: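 IC50 came from plotting % ATP consumption against log compound concentration, with leftover ATP detected by KinaseGlo Max chemiluminescence. Reactions ran 20 min at 37 °C with 1.5 μg/mL human cGAS (aa147-522), 6.6 μM ATP, 0.1 mM GTP and 0.01 mg/mL DNA at pH 7.5.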

Structure (SMILES)	IC50 [nM]
O=C(CO)NC1(C(=O)O)CCCN(c2cc(-n3ccnc3)c3ccc(Cl)c(Cl)c3n2)C1 (stereo not shown) [I-125, 1-(7,8-dichloro-4-(1H-imidazol-1-yl)quinolin-2-yl)-3-(2-hydroxyacetamido) piperidine-3-carboxylic acid]	< 2000
C[C@@H](Nc1cc(-c2cn[nH]c2)nc2c(Cl)c(Cl)ccc12)C(=O)OC(C)(C)C [I-290]	2000 to 30000
O=C1COc2ccc(S(=O)(=O)NC[C@@H]3CCCN3c3cc(-n4ccnc4)c4ccc(Cl)c(Cl)c4n3)cc2N1 [I-393]	> 30000
O=C(O)C1CCCN(c2cc(-n3ccnc3)c3ccc(Cl)cc3n2)C1 (stereo not shown) [I-122]	2000 to 30000
O=C(O)[C@H]1CCCN1C(=O)C[C@@H]1CCCN1c1cc(-n2ccnc2)c2ccc(Cl)c(Cl)c2n1 [I-386]	< 2000
CN(CCO)c1cc(-n2ccnc2)c2ccc(Cl)c(Cl)c2n1 [I-238]	< 2000
CC(C)(C)c1ccc2c(-c3cn[nH]c3)cc(NCCS(N)(=O)=O)nc2c1 [I-268]	> 30000
Cc1cccc2nc(NCCS(N)(=O)=O)cc(-c3cn[nH]c3)c12 [I-267]	> 30000
O=C(O)c1cccc(-c2cc(-c3ccn[nH]3)c3ccc(Cl)cc3n2)c1 [I-74, 3-(7-Chloro-4-(1H-pyrazol-5-yl)quinolin-2-yl)benzoic acid]	> 30000
O=S(=O)(NC1CCCN(c2cc(-n3ccnc3)c3ccc(Cl)cc3n2)C1)c1ncc[nH]1 (stereo not shown) [I-101]	< 2000
OCc1cn(-c2cc(-c3ccccc3)nc3cc(Cl)ccc23)cn1 [I-63]	> 30000
Clc1ccc2c(-n3ccnc3)cc(N3CCCCC3)nc2c1Cl [I-121]	2000 to 30000
CNC(=O)CCN(C)c1cc(-c2cn[nH]c2)c2ccc(Cl)c(Cl)c2n1 [I-192]	< 2000
CN(CCCO[PH](=O)O)c1cc(-c2cn[nH]c2)c2ccc(Cl)c(Cl)c2n1 [I-256]	< 2000
Clc1ccc2c(-c3cc[nH]c3)cc(-c3ccccc3)nc2c1 [I-72]	> 30000
OC1(CNc2cc(-n3ccnc3)c3ccc(Cl)c(Cl)c3n2)CC1 [I-245]	< 2000
Clc1cc(N2CCNCC2)c2ccc(Cl)c(Cl)c2n1 [I-312]	> 30000
O=C(O)C1CN(c2cc(-n3ccnc3)c3ccc(Cl)c(Cl)c3n2)CCC1O (stereo not shown) [I-332]	< 2000
O=C(O)C1CC(O)CN(c2cc(-n3ccnc3)c3ccc(Cl)cc3n2)C1 (stereo not shown) [I-135]	> 30000
Clc1ccc2c(-n3ccnc3)cc(NCc3ccncc3)nc2c1 [I-353, 7-chloro-4-(1H-imidazol-1-yl)-N-(pyridin-4-ylmethyl)quinolin-2-amine]	> 30000
O=C1CN(c2cc(-n3ccnc3)c3ccc(Cl)c(Cl)c3n2)CC(C(=O)O)N1 (stereo not shown) [I-334]	> 30000
CN(CCC(=O)NCC(=O)O)c1cc(-c2cn[nH]c2)c2ccc(Cl)c(Cl)c2n1 [I-196]	< 2000
OC[C@@H]1CN(c2cc(-c3cn[nH]c3)c3ccc(Cl)c(Cl)c3n2)CCO1 [I-372]	< 2000

Structure (SMILES)	IC50 [nM]
O=C1CN(c2cc(-c3cn[nH]c3)nc3c(Cl)c(Cl)ccc23)CCN1 [I-299]	> 30000
Clc1ccc2c(-c3cncnc3)cc(-c3ccccc3)nc2c1 [I-71]	> 30000
Cc1nccn1-c1ccnc2ccccc12 [I-411]	> 30000
OC[C@@H]1CCCN1c1cc(-c2cn[nH]c2)c2ccc(Cl)c(Cl)c2n1 [I-138]	< 2000
CN(CCC(N)=O)c1cc(-c2cn[nH]c2)c2ccc(Cl)c(Cl)c2n1 [I-191]	< 2000
Clc1ccc2c(-n3ccnc3)cc(OCc3ccccc3)nc2c1 [I-277, 2-(benzyloxy)-7-chloro-4-(1H-imidazol-1-yl)quinoline]	2000 to 30000
O=C(O)CCN(CC(=O)O)c1cc(-n2ccnc2)c2ccc(Cl)c(Cl)c2n1 [I-175]	< 2000
Cc1cc(NCC(N)=O)c2ccc(Cl)c(Cl)c2n1 [I-313]	> 30000
C[C@@]1(CO)CCCN1c1cc(-n2ccnc2)c2ccc(Cl)c(Cl)c2n1 [I-143]	< 2000
CS(=O)(=O)N1CCN(c2cc(-n3ccnc3)c3ccc(Cl)cc3n2)CC1 [I-78, 7-chloro-4-(1H-imidazol-1-yl)-2-(4-(methylsulfonyl)piperazin-1-yl) quinoline]	> 30000
CC(CNc1cc(-n2ccnc2)c2ccc(Cl)c(Cl)c2n1)S(N)(=O)=O (stereo not shown) [I-210]	2000 to 30000
O=C(C[C@@H]1CCCN1c1cc(-n2ccnc2)c2ccc(Cl)c(Cl)c2n1)N[C@@H](C(=O)O)c1ccccc1 [I-388]	2000 to 30000
O=c1[nH]c2cc(-c3cc(-n4ccnc4)c4ccc(Cl)cc4n3)ccc2o1 [I-36]	> 30000
C[C@@H](CC(=O)O)Nc1cc(-n2ccnc2)c2ccc(Cl)c(Cl)c2n1 [I-186]	< 2000
COC(=O)[C@H]1CCCN(c2cc(-n3ccnc3)c3ccc(Cl)cc3n2)C1 [I-356]	> 30000
O=C(O)C[C@@H]1CCCN1c1cc(-c2cn[nH]c2)c2ccc(Cl)c(Cl)c2n1 [I-444]	< 2000
CC(O)CN(C)c1cc(-n2ccnc2)c2ccc(Cl)c(Cl)c2n1 (stereo not shown) [I-243]	< 2000
O=[PH](O)OCCC1CCCN(c2cc(-c3cn[nH]c3)c3ccc(Cl)c(Cl)c3n2)C1 (stereo not shown) [I-330]	< 2000
O=C(NCCO)[C@@H]1CCCN1c1cc(-n2ccnc2)c2ccc(Cl)c(Cl)c2n1 [I-452]	2000 to 30000
CN(CCN(C)S(N)(=O)=O)c1cc(-n2ccnc2)c2ccc(Cl)c(Cl)c2n1 [I-224]	< 2000
Fc1ccc2c(-n3ccnc3)ccnc2c1 [I-416]	> 30000
O=C(O)/C=C/c1cc(-c2cn[nH]c2)c2ccc(Cl)c(Cl)c2n1 [I-423, 3-(7,8-dichloro-4-(1H-pyrazol-4-yl)quinolin-2-yl)acrylic acid]	< 2000

Same assay, conditions: Table 3, read-out: cGAS Inhibition Results IC50

Structure (SMILES)	IC50 [nM]
O=C(O)C1CCN(C(=O)C[C@@H]2CCCN2c2cc(-n3ccnc3)c3ccc(Cl)c(Cl)c3n2)CC1 [I-529]	< 2000
O=C(O)[C@@H]1C[C@@H](OC(=O)N2CCOCC2)CN1c1cc(-n2ccnc2)c2ccc(Cl)c(Cl)c2n1 [I-606, (2S,4R)-1-(7,8-dichloro-4-(1H-imidazol-1-yl)quinolin-2-yl)-4-((morpholine-4-carbonyl)oxy)pyrrolidine-2-carboxylic acid]	2000 to 30000
O[C@H]([C@@H]1CCCN1c1cc(-n2ccnc2)c2ccc(Cl)c(Cl)c2n1)C(F)(F)F [I-655, (R)-1-((S)-1-(7,8-dichloro-4-(1H-imidazol-1-yl)quinolin-2-yl)pyrrolidin-2-yl)-2,2,2-trifluoroethan-1-ol]	< 2000
CCOC(=O)[C@@H]1CC[C@H](C)N1c1cc(-n2ccnc2)c2ccc(Cl)c(Cl)c2n1 [I-460]	2000 to 30000
CN(CC(=O)NCCC(=O)O)c1cc(-n2ccnc2)c2ccc(Cl)c(Cl)c2n1 [I-562]	< 2000
O=C(O)CCOC[C@@H]1CCCN1c1ccc2ccc(Cl)c(Cl)c2n1 [I-827]	> 30000
COC(=O)CO[C@@H]1CCN(c2cc(-n3ccnc3)c3ccc(Cl)c(Cl)c3n2)C1 [I-768]	2000 to 30000
CN(CCC(=O)NCCS(N)(=O)=O)c1cc(-n2ccnc2)c2ccc(Cl)c(Cl)c2n1 [I-567]	< 2000
O=C(C[C@@H]1CCCN1c1cc(-n2ccnc2)c2ccc(Cl)c(Cl)c2n1)NCCC(O)(C(F)(F)F)C(F)(F)F [I-543]	2000 to 30000
O=C(O)c1cccc(S(=O)(=O)N[C@@H]2C[C@@H](C(=O)O)N(c3cc(-n4ccnc4)c4ccc(Cl)c(Cl)c4n3)C2)c1 [I-510]	< 2000
O=C(O)CCOC[C@H]1CCN(c2cc(-n3ccnc3)c3ccc(Cl)c(Cl)c3n2)C1 [I-772]	2000 to 30000
COC(=O)CCO[C@@H]1CCN(c2cc(-n3ccnc3)c3ccc(Cl)c(Cl)c3n2)C1 [I-769]	2000 to 30000
O=C(O)C1CCCN(C(=O)[C@@H]2CCCN2c2cc(-n3ccnc3)c3ccc(Cl)c(Cl)c3n2)C1 (stereo partly shown) [I-546]	2000 to 30000
COC(=O)c1cccn1-c1cc(-n2ccnc2)c2ccc(Cl)c(Cl)c2n1 [I-458]	2000 to 30000
O=C(O)CCS(=O)(=O)N[C@@H]1C[C@@H](C(=O)O)N(c2cc(-n3ccnc3)c3ccc(Cl)c(Cl)c3n2)C1 [I-512]	< 2000
O=C(O)CCOCC(CO)Nc1cc(-n2ccnc2)c2ccc(Cl)c(Cl)c2n1 (stereo not shown) [I-873]	< 2000
O=C(O)CCOC[C@@H]1CCC(=O)N1c1cc(-n2ccnc2)c2ccc(Cl)c(Cl)c2n1 [I-812, (S)-3-((1-(7,8-dichloro-4-(1H-imidazol-1-yl)quinolin-2-yl)-5-oxopyrrolidin-2-yl)methoxy)propanoic acid]	< 2000
CC1(C)C[C@@H](C(=O)O)N(c2cc(-n3ccnc3)c3ccc(Cl)c(Cl)c3n2)C1 [I-479]	< 2000
COC[C@@H]1CC[C@@H](C(=O)O)N1c1cc(-n2ccnc2)c2ccc(Cl)c(Cl)c2n1 [I-463]	2000 to 30000
COC(=O)C12CC(CN1c1cc(-n3ccnc3)c3ccc(Cl)c(Cl)c3n1)C2 [I-579]	> 30000
CON(C)C(=O)[C@@H]1CCCN1c1cc(-n2ccnc2)c2ccc(Cl)c(Cl)c2n1 [I-542]	2000 to 30000
CC(C)(C)OC(=O)[C@H]1CCCN1C(=O)C[C@@H]1CCCN1c1cc(-n2ccnc2)c2ccc(Cl)c(Cl)c2n1 [I-522]	2000 to 30000
O=C(O)[C@@H]1CSCN1c1cc(-n2ccnc2)c2ccc(Cl)c(Cl)c2n1 [I-485]	< 2000
N[C@@H]1C[C@@H](C(=O)O)N(c2cc(-n3ccnc3)c3ccc(Cl)c(Cl)c3n2)C1 [I-519]	< 2000
CN(CCNC(=O)CCC(=O)O)c1cc(-n2ccnc2)c2ccc(Cl)c(Cl)c2n1 [I-616]	< 2000
COC(=O)[C@@H]1C[C@@H](OCCC(=O)O)CN1c1cc(-n2ccnc2)c2ccc(Cl)c(Cl)c2n1 [I-869]	2000 to 30000
CN(CCC(=O)O)C(=O)C[C@@H]1CCCN1c1cc(-n2ccnc2)c2ccc(Cl)c(Cl)c2n1 [I-525]	< 2000
COC(=O)CNC(=O)O[C@@H]1CCN(c2cc(-n3ccnc3)c3ccc(Cl)c(Cl)c3n2)[C@@H]1C(=O)OC [I-653, methyl (2S,3R)-1-(7,8-dichloro-4-(1H-imidazol-1-yl)quinolin-2-yl)-3-(((2-methoxy-2-oxoethyl)carbamoyl)oxy)pyrrolidine-2-carboxylate]	< 2000
